Test results published in patent US9453226B2, “Protection of cells from Alu-RNA-induced degeneration and inhibitors for protecting cells” (UNIVERSITY OF KENTUCKY RESEARCH FOUNDATION, priority 2011, dated 2016).
Values belong to the compound of their own block, whether it stands above or below them.

Tests used:
[1] = tested on: phagosomal ROS; assay: Phagosomal ROS in human RPE cells (Fc OXYBURST Green); type: cell-based
Experimental: Cellular ROS production was assessed using the ROS-specific probe 2′7′-dichlorodihydrofluorescin diacetate (H2DCFDA, BioChemica, Fluka). Mitochondrial ROS production was assessed using MitoSOX™ Red (Invitrogen). Sub-confluent human RPE cells were transfected with pNull or pAlu. After 24 h cells were loaded for 10 min at 37° C. with 10 μM H2DCFDA or MitoSOX™ Red (Invitrogen) mitochondrial superoxide indicator for live-cell imaging and washed twice with PBS. For H2DCFDA, fluorescence was recorded in 96-well plate using with a Synergy 4 reader (Biotek) using a FITC filter (excitation 485 nm, emission 538 nm). To visualize respiring mitochondria for colocalization with the mitochondrial ROS signal, after PBS wash cells were incubated with MitoTracker Deep Red™ (Invitrogen) for 30 min at 37° C. and then washed twice with PBS. The fluorescent signals were detected using Leica SP-5 or Zeiss Axio Observer Z1 microscopes. Phagosomal ROS production was assessed using the Fc-OXYBURST Green™ assay (Invitrogen). Sub-confluent human RPE cells were transfected with pNull or pAlu, or treated with PMA (0.5 μg/ml; Sigma-Aldrich). […] The total fluorescence from the cells was measured immediately after adding Fc-OXYBURST Green™ with a Synergy 4 reader (Biotek) using FITC filter (excitation 485 nm, emission 538 nm).

[2] = tested on: Caspase-8; assay: Caspase-8 activation in the RPE of wild-type mice (fluorometric assay); type: in vivo; conditions: subretinal injection
Experimental: RPE tissues were homogenized in lysis buffer (10 mM Tris base, pH 7.4, 150 mM NaCl, 1 mM EDTA, 1 mM EGTA, 1% Triton X-100, 0.5% NP-40, protease and phosphatase inhibitor cocktail (Roche)). Protein concentrations were determined using a Bradford assay kit (Bio-Rad) with bovine serum albumin as a standard. The […] activity was measured using Caspase-8 Fluorimetric Assay (R&D) in according to the manufacturer's instructions.

[3] = tested on: RPE; assay: RPE degeneration after subretinal delivery in mice (wild-type and deficient strains); type: in vivo
Experimental: (§1) Subretinal injection and imaging. Subretinal injections (1 μL) were performed using a Pico-Injector (PLI-100, Harvard Apparatus). Plasmids were transfected in vivo using 10% Neuroporter (Genlantis). Fundus imaging was performed on a TRC-50 IX camera (Topcon) linked to a digital imaging system (Sony). RPE flat mounts were immunolabeled using antibodies against zonula occludens-1 (Invitrogen).
All animal experiments were approved by institutional review committees and in accordance with the Association for Research in Vision and Ophthalmology Statement for the Use of Animals in Ophthalmic and Visual Research. Wild-type C57BL/6J, Cybb^−/−, Tlr3^−1−, Tlr4^−/− (C57BL/10ScNJ), Trif^−/− (Ticam1^Lps2), Ifng^−/−, Ifngr1^−/−, Il1r1^−1−, Il18r1^−1−, Myd88^f/f, and Dicer1^f/f mice were purchased from The Jackson Laboratory. Casp1^−1−, Nbp3^−/−, and Pycard^−/− mice have been previously described (Kanneganti et al., 2006). Unc93b1 mutant mice were generously provided by B. A. Beutler via K. Fitzgerald. Myd88^−/− and Tlr7^−/− mice were generously provided by S. Akira via T. Hawn and D. T. Golenbock. Mda5^−/− mice were generously provided by M. Colonna. […] Mavs^−/− mice were generously provided by Z. Chen via K. Fitzgerald. For all procedures, anesthesia was achieved by intraperitoneal injection of 100 mg/kg ketamine hydrochloride (Ft. Dodge Animal Health) and 10 mg/kg xylazine (Phoenix Scientific), and pupils were dilated with topical 1% tropicamide (Alcon Laboratories).
(§2) Subretinal injections (1 μL) in mice were performed using a Pico-Injector (PLI-100, Harvard Apparatus). In vivo transfection of plasmids coding for two different Alu sequences (pAlu) or empty control vector (pNull) (Bennett et al., 2008; Kaneko et al., 2011; Shaikh et al., 1997) was achieved using 10% Neuroporter (Genlantis). AAV1-BEST1-Cre (Alexander and Hauswirth, 2008) or AAV1-BEST1-GFP were injected at 1.0×10^11 pfu/mL and in vitro transcribed Alu RNA was injected at 0.3 mg/mL.
Bone marrow transplantation was used to create Myd88^−/− chimera mice wherein the genetic deficiency of Myd88 was confined to either circulating cells (Myd88^−/− →WT) or nonhematopoietic tissue (WT→Myd88^−/−). Briefly, bone marrows were collected from femur and tibia of congenic WT or Myd88^−/− donor mice by flushing with RPMI1640. After two washing steps, cells were resuspended in RPMI1640. 1×10^7 cells in 150 μL of RPMI1640 were injected into the tail vein of irradiated […] mice. Two chimera groups were generated: WT→Myd88^−/− (WT cells into Myd88^−/− mice) and Myd88→WT (Myd88 cells into WT mice). 2 months after bone marrow transfer, mice were injected subretinally with Alu RNA, vehicle, pAlu, or pNull, and monitored for RPE degeneration 7 days later. […]

[4] = tested on: MyD88; assay: MyD88 knockdown in mouse RPE cells; type: cell-based; conditions: compared to control siRNA
Description: Total RNA was extracted from tissues or cells using Trizol reagent (Invitrogen) according to manufacturer's recommendations, DNase treated and reverse transcribed (QuantiTect, Qiagen). The RT products (cDNA) were amplified by real-time quantitative PCR (Applied Biosystems 7900 HT Fast Real-Time PCR system) with Power SYBR green Master Mix. […] For negative controls, no RT products were used as templates in the QPCR and verified by the absence of gel-detected bands. Relative expressions of target genes were determined by the 2^−ΔΔCt method.
Tissues or cells were homogenized in lysis buffer (10 mM Tris base, pH 7.4, 150 mM NaCl, 1 mM EDTA, 1 mM EGTA, 1% Triton X-100, 0.5% NP-40, protease and phosphatase inhibitor cocktail (Roche)). Protein concentrations were determined using a Bradford assay kit (Bio-Rad) with bovine serum albumin as a standard. […] Protein loading was assessed by immunoblotting using an anti-Vinculin antibody (1:1,000; Sigma-Aldrich). […]

[5] = tested on: RPE; assay: pAlu-induced RPE degeneration in wild-type mice, inhibitors given intravitreously; type: in vivo; conditions: WT mice, subretinal pAlu, inhibitor intravitreous, fundus photographs and ZO-1 flat mounts
Experimental: as §1
Retinal photographs of dilated mouse eyes were taken with a TRC-50 IX camera (Topcon) linked to a digital imaging system (Sony).
Human eyes fixed in 2-4% paraformaldehyde were prepared as eyecups, cryoprotected in 30% sucrose, embedded in optimal cutting temperature compound (Tissue-Tek OCT; Sakura Finetek), and cryosectioned into 10 μm sections. Depigmentation was achieved using 0.25% potassium permanganate and 0.1% oxalic acid. Immunohistochemical staining was performed with the rabbit antibody against NLRP3 (1:100, Sigma Aldrich) or rabbit antibody against Caspase-1 (prediluted, AbCam). Isotype IgG was substituted for the primary antibody to assess the specificity of the staining. Bound antibody was detected with biotin-conjugated secondary antibodies, followed by incubation with ABC reagent and visualized by Vector Blue (Vector Laboratories). Levamisole (Vector Laboratories) was used to block endogenous alkaline phosphatase activity. Slides were washed in PBS, counterstained with neutral red (Fisher Scientific), rinsed with deionized water, air dried, and then mounted in Vectamount (Vector Laboratories). Fluorescent labeling of human tissue was performed with the rabbit antibody against PYCARD (1:50, Clone N-15, Santa Cruz Biotechnology) Immunolabeling was visualized by fluorescently conjugated anti-rabbit secondary antibody (Invitrogen). Tissue autofluorescence was quenched by incubating the sections in 0.3% Sudan black (Fisher Scientific). Sections were mounted in Vectashield with DAPI (Vector Laboratories). Mouse RPE/choroid flat mounts were fixed with 4% paraformaldehyde or 100% methanol, stained with rabbit antibodies against human zonula occludens-1 (1:100, Invitrogen) and visualized with Alexa594 (Invitrogen). All images were obtained using the Leica SP-5 or Zeiss Axio Observer Z1 microscopes.
as §2
siRNAs formulated in siRNA buffer (20 mM KCL, 0.2 mM MgCl2 in HEPES buffer at pH 7.5; Dharmacon) or phosphate buffered saline (PBS; Sigma-Aldrich); the TLR4 antagonist Ultra Pure Rhodobacter sphaeroides LPS (LPS-RS, InvivoGen), a peptide inhibitor of MyD88 homodimerization IMG-2005 (IMGENEX), control inhibitor (IMGENEX), recombinant IL-18 (Medical & Biological Laboratories), neutralizing rat antibodies against mouse IL-1β (IMGENEX), neutralizing rat antibodies against mouse IL-18 (Medical & Biological Laboratories), isotype control IgGs (R&D Systems or eBioscience as appropriate), Caspase-1 inhibitor Z-WEHD-FMK (R&D Systems), Caspase control inhibitor Z-FA-FMK (R&D Systems), DPI (Enzo Life Sciences), Mito-TEMPO (Enzo Life Sciences), MitoQ and dTPP (both adsorbed to cyclodextrin and provided by M.P. Murphy, MRC Mitochondrial Biology Unit), and gp91ds-tat and scrambled gp91 ds-tat (both Anaspec), were dissolved in phosphate buffered saline (PBS; Sigma-Aldrich) or dimethyl sulfoxide (DMSO; Sigma-Aldrich), and injected into the vitreous humor in a total volume of 1 μL with a 33-gauge Exmire microsyringe (Ito Corporation). […] As a control, Luc siRNA-chol (17+2 nt) was used with identical dosages. […]

Compound: CCCCCCCCCCCCCC(=O)O[C@@H]1[C@@H](C)[C@@]2(O)[C@@H](C=C(CO)C[C@]3(O)C(=O)C(C)=C[C@@H]23)[C@@H]2C(C)(C)[C@]12OC(C)=O [PMA, phorbol myristate acetate]
- phagosomal ROS [1]: induced phagosomal ROS

- activation of Caspase-8 ([2]; listed as IL-18): induced activation of caspase-8
- activation of Caspase-8 ([2]; listed as recombinant IL-18): induced activation of Caspase-8
Compound: Recombinant IL-18: recombinant IL-18 (Medical & Biological Laboratories)
- RPE degeneration after subretinal delivery ([3]; CD95−/− (Fas lpr) mice): did not induce RPE degeneration
- RPE degeneration after subretinal delivery ([3]; Casp1−/− mice): induced RPE degeneration
- RPE degeneration after subretinal delivery ([3]; Faslg−/− (Fasl gld) mice): did not induce RPE degeneration
- RPE degeneration after subretinal delivery ([3]; WT mice): induced RPE degeneration

Compound: 5′-CAGAGCAAGGAAUGUGAdTdT-3′ [cholesterol-conjugated Myd88 siRNA]
- target gene and protein abundance (MyD88) [4]: reduces
- pAlu-induced RPE degeneration [5]: inhibited
- pAlu-induced RPE degeneration ([5]; listed as MyD88-targeting short interfering RNA): inhibited RPE degeneration
